The record followed here is patent US10046050B2, “Targeting immunotherapy for amyloidosis” (UNIVERSITY OF TENNESSEE RESEARCH FOUNDATION, priority 2014, dated 2018).

In one experiment the test system is mAb 7D8. In words: Surface plasmon resonance of mAb 7D8 binding to amino-coupled peptopes. The method, then:
Analyses were performed using a BIAcore X surface plasmon resonance instrument (GE Healthcare) and all reagents were obtained from GE Healthcare. For chip preparation, the peptides were attached to CM-5 chips using the amino-coupling method supplied with the instrument software. Briefly, chips were activated by injection (35 μL) of a mixture of ECD/NHS at a flow rate of 5 μL/min. Immediately thereafter, 35 μL of the test peptide (peptope p75, p76, p77, or p78), diluted to 1 μg/mL in NaOAc buffer, pH 5.5, was injected. After peptide coupling, the remaining active groups on the chip were blocked by injection of 35 μL of 1 M ethanolamine-HCl pH 8.5. Test peptides p75, p76, p77, or p78 were coupled to the Fc-1 channel and peptide p5, which served as a control, was coupled to the Fc-2 channel. A sensorgram was initiated on each chip in HBS-EP buffer at 10 μL per min. An initial regeneration step consisting of a 20 μL injection of pH 2.5 glycine buffer was performed and the baseline allowed to equilibrate. Antibody 7D8 was diluted to a stock of 10 μg/mL in HBS-EP buffer which was further diluted to a 0.4 μg/mL (˜2.7 nM) working dilution immediately before injection. The antibody was injected (50 μL) and the data collected for 200 seconds using a delayed wash cycle. The chip was subjected to a regeneration step before the next test injection. Binding data were extracted from the sensorgram, aligned, and analyzed using the BIAevaluation software by fitting to the following binding models (i) Langmuir, (ii) Langmuir with mass transfer, and (iii) Interaction of a bivalent analyte [A+B→AB; AB+B→AB2].
On the technique in general: SPR reads the build-up and loss of mass on a sensor chip optically.

In another experiment the test system is human ATTR amyloid. In words: Immunohistochemistry of biotinyl-7D8 on formalin-fixed tissue sections. The conditions noted are these: label = pre-treatment peptide, or 7D8 alone. The class given is binding. The method, then: (§1) The binding of biotinylated 7D8 mAb with autopsy-derived, formalin-fixed, paraffin-embedded tissue sections containing, ATTR, ALκ or ALλ was assessed immunohistochemically. Consecutive tissue sections were stained with: Congo red; biotinylated 7D8 alone; 7D8 with the control peptide p5; or, 7D8 mAb with peptope p75 pretreatment. Briefly, six μm-thick tissue sections were subjected to antigen retrieval by incubation in CitraPlus solution (BioGenex, San Ramon, Calif.) for 30 min at 90° C. Unlabeled peptope p75 was added to the tissue at ˜3 μg/mL and incubated overnight at 4° C. Unbound reagent was removed by washing in PBST for 30 min. Tissues sections (with or without peptope pretreatment) were immunostained by addition of 3 μg/mL biotinylated 7D8 mAb. Slides were developed by addition of streptavidin-HRP (Vectastain Elite ABC kit, Vector Labs) followed by 3,3′-diaminobezidene (Vector Labs) and examined using a Leica DM500 microscope.

For another experiment, the system named is human Den ALλ amyloid. The description is as above. The class given is binding. To be noted: thyroid, label = pre-treatment peptide, or 7D8 alone. The method, then:
as §1

The subject of another experiment is human Tal ALκ amyloid. Described as above. In kind it is binding. To be noted: kidney, label = pre-treatment peptide, or 7D8 alone. The method, then: as §1
Another experiment addresses T1, Aβ(1-40) fibrils (Homo sapiens, UniProt P05067).
T1 construct: synthetic amyloid fibrils composed of rVλ6Wil (AL fibrils) or Aβ(1-40); host or cells: synthetic peptide fibrils
In words: EuLISA of murine 11-1F4 on synthetic amyloid fibrils with or without p66. The conditions noted are these: p66 added to fibril-coated wells. The class given is binding. The method, then:
(§2) To assess the interaction of 11-1F4 with synthetic amyloid fibrils, we evaluated the interaction of murine 11-1F4 with synthetic amyloid fibrils composed of the λ6 light chain Wil-associated with light chain (AL) amyloidosis, or Aβ(1-40), associated with Alzheimer's disease and cerebral amyloid angiopathy. More particularly, Costar high binding plates were coated with 50 μl per well of […] of synthetic amyloid fibrils composed of rVλ6Wil (AL fibrils) or Aβ(1-40) overnight at 37° C. The plates were washed with 1× solution of phosphate buffered saline with 0.05% (v/v) tween 20 (PBST)—similar wash steps were performed between each step. As a “blocking step” the plates were incubated for 1 h at 37° C. with 200 μl of 1% (w/v) BSA in PBS per well. The murine 11-1F4 mAb was added from 100 nM (in BSAT), as a starting concentration, and diluted 1:2 across the microplate and incubation for 1 h at 37° C. Biotinylated goat anti-mouse secondary antibodies (Sigma) were used at a 1:3000 dilution in BSAT. Europium-conjugated streptavidin (Perkin Elmer) was added (1:1000 dilution of stock) as a detection medium and the plate incubated for 1 h 37° C. […] was quantified following addition of enhancement solution (Perkin Elmer) and the time-resolved fluorescence measured using a Victor 3 Wallac plate reader (Perkin Elmer).

In experiment [1] the test system is synthetic amyloid fibrils composed of rVλ6Wil (AL fibrils). The description is as above. In kind it is binding. To be noted: p66 added to fibril-coated wells. On the procedure: as §2
Setting [2] is: Langmuir with Mass Transfer, 7D8 2.7 nM.

Like-named read-outs stand apart in the source and are kept apart here.

In general, Kd refers to the equilibrium constant for the complex coming apart.

T1 sequence (P05067 672-711 limits assumed): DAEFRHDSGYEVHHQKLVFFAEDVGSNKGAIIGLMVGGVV

In the case of “KAQKAQAKQAKQAQKAQKAQAKQAKQAQHEDT [p75, KAQKAQAKQAKQAQKAQKAQAKQAKQAQHEDT]”, the “Rmax (RU)” value is reported as 4.79E+03 RU in the experiment on mAb 7D8 (Bivalent Analyte, 7D8 2.7 nM); 765 RU in the experiment on mAb 7D8 (setting [2]); 2.18E+03 RU in the experiment with mAb 7D8 (Langmuir, 7D8 2.7 nM). In addition, in the experiment with mAb 7D8 (Bivalent Analyte, 7D8 2.7 nM), the “ka1” value amounted to 85300 M⁻¹ s⁻¹. Further, the “ka2 (1/RUs)” value with mAb 7D8 (Bivalent Analyte, 7D8 2.7 nM) is 8.22E−04 1/RUs. In addition, the “kd1” value at mAb 7D8 (Bivalent Analyte, 7D8 2.7 nM) was found to be 0.0674 s⁻¹. For the same substance, the “kd2” value at mAb 7D8 (Bivalent Analyte, 7D8 2.7 nM) came to 0.0628 s⁻¹. Besides, the “KA” value in the experiment with mAb 7D8 (setting [2]) turned out to be 6.98e+08 M⁻¹; in the experiment on mAb 7D8 (Langmuir, 7D8 2.7 nM) it was 1.59e+08 M⁻¹. For the same substance, the “Req (RU)” value turned out to be 500 RU in the experiment on mAb 7D8 (setting [2]) and 654 RU in the experiment on mAb 7D8 (Langmuir, 7D8 2.7 nM). The “ka” value in the experiment on mAb 7D8 (setting [2]) worked out at 5.95e+06 M⁻¹ s⁻¹; in the experiment with mAb 7D8 (Langmuir, 7D8 2.7 nM) it was 369000 M⁻¹ s⁻¹. Further, the “kd” value on mAb 7D8 (setting [2]) was found to be 0.00853 s⁻¹; at mAb 7D8 (Langmuir, 7D8 2.7 nM), 0.00233 s⁻¹. For the same substance, the “kobs” value with mAb 7D8 (setting [2]) amounted to 0.0246 s⁻¹; with mAb 7D8 (Langmuir, 7D8 2.7 nM), 0.00333 s⁻¹. Besides, the “kt (RU/(M*s))” value with mAb 7D8 (setting [2]) is given as 9.14E+08 RU/(M*s). The Kd at mAb 7D8 (Langmuir with Mass Transfer, 7D8 2.7 nM, read-out: KD) was 1.43 nM; on mAb 7D8 (Langmuir, 7D8 2.7 nM, read-out: KD) it was 6.3 nM; at mAb 7D8 (text summary of surface plasmon resonance measurements, read-out: dissociation constants (KD)) it was 1 to 5 nM. Further, the “binding kinetics relative to the other peptopes” value in the experiment on mAb 7D8 (surface plasmon resonance) is “slow and reduced off-rate”. The “immunohistochemical staining with biotinyl-7D8” value is listed as “Specific positive staining” in the experiment with human ATTR amyloid (Gre ATTR, esophagus); “Specific positive staining” in the experiment with human ATTR amyloid (Gre ATTR, heart); “Specific positive staining” in the experiment with human ATTR amyloid (Gre ATTR, nerve); “Specific positive staining” in the experiment on human ATTR amyloid (Gre ATTR, small bowel); “Specific positive staining” in the experiment on human ATTR amyloid (Ken ATTR, heart); “Specific positive staining” with human ATTR amyloid (Sno ATTR, heart). Further, the “immunohistochemical staining with biotinyl-7D8” value in the experiment with human Den ALλ amyloid and in the experiment with human Tal ALκ amyloid was “Specific positive staining” in each case.
Consider “KAQKAQAKQAKQAQKAQKAQAKQAKQAQKAQKAQAKQAKQ SVTVVT KHYAAFPENLLI [p66]”, for which the “reactivity of the 11-1F4 mAb with fibrils when p66 was added” value (on Aβ(1-40) fibrils; in experiment [1]) was “enhanced” each time.
